Key:
RAMP1, RAMP2, RAMP3, CLR = experiment: Gene expression of receptor components in distal colon, Study No. P200487; format: in vivo, mouse; details: 25 and 250 nmol/kg i.v., day 12, qPCR
Excerpt: Figure 6 Therapeutic effects of PEG-AM administered after disease onset in DSS-induced colitis (Study No. P200487). (a) Overview of the experimental design. Groups: vehicle (n = 6), PEG-AM 25 nmol/kg (n = 6), 250 nmol/kg (n = 6). (b) Time course of total inflammation scores after PEG-AM administration. (c) Colon length, * p < 0.05, one-way ANOVA followed by Dunnett’s multiple-comparisons test. ns, not significant. (d) Colon weight-to-length ratio, * p < 0.05, one-way ANOVA followed by Dunnett’s multiple-comparisons test. ns, not significant. (e) PEG-AM plasma concentrations on day 12. (f–i) Fold changes in gene expression of RAMP1 (f), RAMP2 (g), RAMP3 (h), and CLR (i).
After measuring colon length and weight, distal colon tissue was collected, immersed in RNAlater (Thermo Fisher Scientific K.K.), and stored at −80 °C until RNA extraction. Total RNA was extracted using the RNeasy Micro Kit (Qiagen, Singapore) and quantified using a DeNovix DS-11 Microvolume Spectrophotometer. cDNA was synthesized from 2 μg of total RNA using a high-capacity cDNA Reverse Transcription Kit (Thermo Fisher Scientific K.K.). Quantitative PCR was performed using the StepOnePlus Real-Time PCR System (Applied Biosystems, Waltham, MA, USA) and TaqMan Gene Expression Assays for mouse RAMP1, RAMP2, RAMP3, CLR (CALCRL), and GAPDH (internal control). […]

DSS-induced colitis [1] = experiment: Dose-dependent study of intravenous PEG-AM in DSS-induced colitis (Study No. P170454); format: in vivo, mouse; details: 1, 5, 25 nmol/kg single i.v. one day before 3% DSS (MW 5000); vs vehicle; n = 10 per group
Procedure: We examined the effects of intravenous administration of PEG-AM on DSS-induced colitis, as per the experimental design in Figure 4a. PEG-AM was administered one day before DSS exposure to evaluate its prophylactic effect against colitis onset and progression.  Figure 4 Dose-dependent effects of intravenous PEG-AM administration in DSS-induced colitis (Study No. P170454). (a) Overview of the experimental design. Groups: vehicle (n = 10), PEG-AM 1 nmol/kg (n = 10), 5 nmol/kg (n = 10), 25 nmol/kg (n = 10). (b) Total inflammation scores on day 8. (c) Colon length. (d) Colon weight-to-length ratio. (e) PEG-AM plasma concentrations on day 8. To evaluate the pharmacological effects of PEG-AM, three animal studies were conducted by the LSI Medience Corporation following the Animal Welfare Act and institutional approval. Seven-week-old male C57BL/6J JCL mice (CLEA Japan, Inc., Tokyo, Japan) were used in all studies and were housed under pathogen-free conditions. Colitis was induced with 3% (w/v) DSS (MW 5000) in drinking water for seven days. PEG-AM (1.0, 5.0, and 25 nmol/kg) or saline (control) was administered intravenously one day before DSS treatment. Each group included 10 mice. Stool consistency, bleeding, and body weight were evaluated on days −1, 0, 3, 5, and 7. A total inflammation score was calculated. Mice were anesthetized with 3% isoflurane (Zoetis Japan, Tokyo, Japan), and the colon was excised on day 7.

[2] = PEG-AM plasma concentration, Study No. P170454; format: in vivo; details: 1 nmol/kg single i.v.; mouse; fluorescence immunoassay
Excerpt: Figure 4 Dose-dependent effects of intravenous PEG-AM administration in DSS-induced colitis (Study No. P170454). (a) Overview of the experimental design. Groups: vehicle (n = 10), PEG-AM 1 nmol/kg (n = 10), 5 nmol/kg (n = 10), 25 nmol/kg (n = 10). (b) Total inflammation scores on day 8. (c) Colon length. (d) Colon weight-to-length ratio. (e) PEG-AM plasma concentrations on day 8.
Colitis was induced with 3% (w/v) DSS (MW 5000) in drinking water for seven days. PEG-AM (1.0, 5.0, and 25 nmol/kg) or saline (control) was administered intravenously one day before DSS treatment. Each group included 10 mice. Stool consistency, bleeding, and body weight were evaluated on days −1, 0, 3, 5, and 7. A total inflammation score was calculated. Mice were anesthetized with 3% isoflurane (Zoetis Japan, Tokyo, Japan), and the colon was excised on day 7.

DSS-induced colitis [3] = experiment: Therapeutic effect of PEG-AM after onset of DSS colitis (Study No. P200487); format: in vivo, mouse; details: vs control, n = 6
Procedure: DSS was administered for five days to induce colitis, followed by the administration of PEG-AM or saline on day 5. DSS was replaced with water on day 6 to evaluate recovery. […] (a) Overview of the experimental design. Groups: vehicle (n = 6), PEG-AM 25 nmol/kg (n = 6), 250 nmol/kg (n = 6). (b) Time course of total inflammation scores after PEG-AM administration. (c) Colon length, * p < 0.05, one-way ANOVA followed by Dunnett’s multiple-comparisons test. ns, not significant. (d) Colon weight-to-length ratio, * p < 0.05, one-way ANOVA followed by Dunnett’s multiple-comparisons test. ns, not significant. (e) PEG-AM plasma concentrations on day 12. (f–i) Fold changes in gene expression of RAMP1 (f), RAMP2 (g), RAMP3 (h), and CLR (i). To evaluate the pharmacological effects of PEG-AM, three animal studies were conducted by the LSI Medience Corporation following the Animal Welfare Act and institutional approval. Seven-week-old male C57BL/6J JCL mice (CLEA Japan, Inc., Tokyo, Japan) were used in all studies and were housed under pathogen-free conditions. Colitis was induced with 2% (w/v) DSS (MW 36,000–50,000) for five days. On day 5, the mice were assigned to three groups and intravenously administered one of PEG-AM (25 or 250 nmol/kg) or saline. On day 6, DSS was replaced with water. Clinical symptoms were evaluated on days 5, 8, 10, and 12. The inflammation scores were calculated. Colons were collected on day 12 under isoflurane anesthesia.

40 kDa PEGylated adrenomedullin [PEG-AM]
RAMP2 expression (RAMP1, RAMP2, RAMP3, CLR): increased in a dose-dependent manner; however, the increase was not statistically significant
Receptor component expression (RAMP1, RAMP2, RAMP3, CLR) (RAMP1, RAMP2, RAMP3, CLR): No downregulation
Colon length (DSS-induced colitis [1]): comparable across all groups
Colon weight per unit length (DSS-induced colitis [1]): no significant differences
Total inflammation score on day 8 (DSS-induced colitis [1]): no statistically significant differences
PEG-AM plasma concentration on day 8 [2]: undetectable
Colon weight per unit length (DSS-induced colitis [3]; 250 nmol/kg i.v. on day 5 after DSS onset, day 12, p = 0.039, Dunnett's test): significantly lower
Total inflammation scores over time (DSS-induced colitis [3]; 25 or 250 nmol/kg i.v. on day 5 after 2% DSS (MW 36,000-50,000) for five days, days 5-12): did not significantly alter
Colon length (DSS-induced colitis [3]; i.v. on day 5 after DSS onset, day 12, p = 0.014, one-way ANOVA with Dunnett's test, dose group not given): significantly longer
